Assay results published in patent EP4702982A1, “VITALITY IMPROVING AGENT, COMPOSITION FOR IMPROVING VITALITY, AND FOOD COMPOSITION FOR IMPROVING VITALITY” (Med R&D Co. Ltd, priority 2023, dated 2024).

How the values were obtained:
[1] = system: human primary hair papilla cells (HFDPC); experiment: Cytotoxicity (MTT cell viability) in hair papilla cells; type: cell-based; set-up: key: -: No cytotoxicity was observed.; ±: The cell viability was reduced by 40% or more at a volume of 1/100.; +: The cell viability was reduced by 10% or more at a volume of 1/10,000.; ++: The cell viability was reduced by 40% or more at a volume of 1/10,000; conditions: same method as Experimental Example 4
Experimental: The cytotoxicity of the pine needle extract of Production Example 1 was examined. Regarding the cells, human primary hair papilla cells (HFDPC, purchased from PromoCell GmbH), which are mesenchymal cells isolated from the papilla of normal human scalp hair follicles, were used. HFDPCs were seeded on a collagen-coated 96-well plate at a concentration of 5 × 10^4 cells/well and incubated at 37°C in a humidified atmosphere of 5% CO2. As a culture medium, a hair papilla cell growth culture medium to which growth factors (bovine fetal serum, insulin, transferrin, triiodothyronine, bovine pituitary extract, and a cyproterone solution) had been added was used. After 24 hours, the culture medium for the cells was replaced with a culture medium to which a pine needle extract was added at a volume of 0 (control), 1/6,000, 1/5,000, 1/4,000, 1/3,000, 1/2,000, 1/1,000, 1/500, 1/250, or 1/100, and the cells were incubated for 48 hours. […] Specifically, an MTT reagent (5 mg/mL) was added to the cells, the cells were incubated for 8 hours, subsequently 10% sodium dodecyl sulfate (SDS) was added thereto, and the cells were incubated overnight. Thereafter, the absorbance at 570 nm was measured using a microplate reader, and the cell viability was quantified as a proportion (%) of the absorbance with respect to the absorbance of untreated cells. […]

[2] = system: CTNNB1 gene (β-catenin); experiment: Quantitative real-time PCR of hair growth-related gene CTNNB1 in HFDPCs; type: cell-based, human; set-up: key to CTNNB1: -: Expression was suppressed.; ±: No significant difference was observed in the expression enhancing effects at at least some of the concentrations.; +: A significant difference with p < 0.05 or more was observed in the expression enhancing effects at all concentrations.; ++: A significant difference with p < 0.01 or more was observed in the expression enhancing effects at all concentrations; conditions: for CTNNB1: extracts at a volume of 1/6,000 or 1/10,000 (Production Examples 1 and 6 at non-cytotoxic concentration), D-pinitol and shikimic acid at 1 µM and 10 µM; for expression enhancing effects for CTNNB1 (in words): summary of Table 5
Experimental: (§1) The pine needle extract of Production Example 1 was added to the culture medium for HFDPCs, and the expression of hair growth markers was measured by quantitative real-time PCR. As the hair growth markers, CTNNB1 gene (β-catenin), ALPL gene (alkaline phosphatase), and FGF1 gene (fiblobrast growth factor 1) were examined. It is known that β-catenin induces anagen of the hair cycle and promotes the proliferation of keratinocytes. ALPL is a representative hair growth marker in the hair papilla cells. FGF1 is a marker for morphogenesis of hair follicles. HFDPCs were seeded in a 6-well plate at a concentration of 5 × 10^4 cells/well and incubated at 37°C for 24 hours. Subsequently, the culture medium was removed and replaced with a culture medium containing a pine needle extract at a volume of 1/4,000 and 1/2,000. Furthermore, for a comparison, cells treated with a culture medium to which minoxidil (0.1 µM), an existing therapeutic agent for hair loss, was added, were also prepared. Subsequently, after 48 hours, the cells were washed with cold PBS, and total RNA was extracted using an ISOGEN kit (Nippon Gene Co., Ltd.). Subsequently, the total RNA was quantified using a NanoDrop 2000 spectrophotometer (Thermo Fisher Scientific, Inc.), and quantitative real-time PCR analysis was performed. […] Subsequently, real-time PCR was carried out using a 7500 Fast Real-Time PCR system (Software 1.3.1, Thermo Fisher Scientific, Inc.) and TaqMan probes specific for CTNNB1, ALPL, and FGF1. GAPDH was used as an endogenous control, and the 2^- △△Ct method was applied, to calculate the relative amount of mRNA in comparison with GAPDH. The effect of the pine needle extracts of Production Examples 3 to 6 on the hair growth-related genes was examined by the same method as that used in Experimental Example 6. Furthermore, the same examination was carried out for D-pinitol and shikimic acid. The pine needle extracts of Production Examples 3 to 6 were each added to the culture medium for cells at a volume of 1/6,000 or a volume of 1/10,000. The pine needle extracts of Production Examples 1 and 6 were each added to the culture medium for cells at a concentration at which cytotoxicity was not observed. D-pinitol was added to the culture medium for cells at 1 µM and 10 µM. Shikimic acid was added to the culture medium for cells at 1 µM and 10 µM. In the following Table 5, "CTNNB1", "ALPL", and "FGF1" indicate the evaluation results for the expression enhancing effects of each hair growth-related gene. […]

[3] = system: ALPL gene (alkaline phosphatase); experiment: Quantitative real-time PCR of hair growth-related gene ALPL in HFDPCs; type: cell-based, human; set-up: key to ALPL: -: Expression was suppressed.; ±: No significant difference was observed in the expression enhancing effects at at least some of the concentrations.; +: A significant difference with p < 0.05 or more was observed in the expression enhancing effects at all concentrations.; ++: A significant difference with p < 0.01 or more was observed in the expression enhancing effects at all concentrations; conditions: for ALPL: extracts at a volume of 1/6,000 or 1/10,000 (Production Examples 1 and 6 at non-cytotoxic concentration), D-pinitol and shikimic acid at 1 µM and 10 µM; for expression enhancing effects for ALPL (in words): summary of Table 5
Experimental: as §1

[4] = system: FGF1 gene (fiblobrast growth factor 1); experiment: Quantitative real-time PCR of hair growth-related gene FGF1 in HFDPCs; type: cell-based, human; set-up: key to FGF1: -: Expression was suppressed.; ±: No significant difference was observed in the expression enhancing effects at at least some of the concentrations.; +: A significant difference with p < 0.05 or more was observed in the expression enhancing effects at all concentrations.; ++: A significant difference with p < 0.01 or more was observed in the expression enhancing effects at all concentrations; conditions: for FGF1: extracts at a volume of 1/6,000 or 1/10,000 (Production Examples 1 and 6 at non-cytotoxic concentration), D-pinitol and shikimic acid at 1 µM and 10 µM; for expression enhancing effects for FGF1 (in words): summary of Table 5
Experimental: as §1

[5] = Body weight and food intake during 7-day oral administration; type: in vivo, ICR mouse; conditions: 20 mg/kg bupropion oral, daily for 7 days
Experimental: In the following Table 6, "LPS" indicates lipopolysaccharide. Furthermore, bupropion administered to a positive control group is an antidepressant. The mice in each group were kept for 7 days to be acclimatized, and then a pine needle extract was orally administered daily for 7 days. Thereafter, neuroinflammation was induced in the brain by a single intraperitoneal administration of LPS, and depression was developed. A tail suspension test was performed the day after the administration of LPS. In the tail suspension test, a SMART 3.0 video image behavior analysis device (Panlab S.L.U.) was used. The brain was removed the day after the tail suspension test, and the hippocampus was further collected and used in the experiment that will be described later.

Compound | Cytotoxicity [1] | CTNNB1 [2] | expression enhancing effects for CTNNB1 (in words) [2] | ALPL [3] | expression enhancing effects for ALPL (in words) [3] | FGF1 [4] | expression enhancing effects for FGF1 (in words) [4] | Final body weight [5] | Increase in body weight (g / 7 days) [5] | Total amount of food intake (g / 7 days) [5] | Initial body weight ([5]; baseline)
CO[C@H]1[C@H](O)[C@@H](O)[C@@H](O)[C@H](O)[C@@H]1O [D-pinitol] | - | ++ | exhibited expression enhancing effects | - | did not exhibit expression enhancing effects | ++ | exhibited expression enhancing effects |  |  |  | 
O=C(O)C1=C[C@@H](O)[C@@H](O)[C@H](O)C1 [Shikimic acid] | - | + | exhibited expression enhancing effects | ± | did not exhibit expression enhancing effects | ++ | exhibited expression enhancing effects |  |  |  | 
CC(NC(C)(C)C)C(=O)c1cccc(Cl)c1 (stereo not drawn) [bupropion] |  |  |  |  |  |  |  | 35.6 ± 0.7 g | 2.9 ± 0.4 g / 7 days | 25.0 ± 1.2 g / 7 days | 32.7 ± 0.8 g
